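Interpolation was linear, between the two tested concentrations surrounding the appropriate level; five concentrations were tested over 48 hours in 96-well plates. TGI: concentration producing complete growth inhibition.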
Legend:
Experiment in all cases: inhibition of tumour cell growth, NCI panel, 48 h
[1] = tested on: MDA-MB-231 breast
[2] = tested on: DU-145 prostate
[3] = tested on: SR leukemia
[4] = tested on: UO-31 renal
[5] = tested on: SNB-19 CNS
[6] = tested on: HS 578T breast
[7] = tested on: HOP-62 NSCLC
[8] = tested on: NCI-H522 lung
[9] = tested on: SF-295 CNS
[10] = tested on: HOP-92 NSCLC

Compound	TGI [1] [µM]	TGI [2] [µM]	TGI [3] [µM]	TGI [4] [µM]	TGI [5] [µM]	TGI [6] [µM]	TGI [7] [µM]	TGI [8] [µM]	TGI [9] [µM]	TGI [10] [µM]
CC(=O)NC1=CC(=O)C=C(Cl)C1=O	> 100	> 100	48.3	> 100	> 100	> 100	> 100	84	> 100	> 100
CC(=O)Nc1ccc2c3c(cc(O)c2c1)N(C(=O)CCCCCC(=O)Nc1ccc2c4c(cc(O)c2c1)N(C(=O)OC(C)(C)C)CC4CCl)CC3CCl (configuration not stated)	18.5	3.12	4.3	> 100	> 35	> 26.9	12	5.78	> 45.9	23.7
Cc1ccc2nnc(NS(=O)(=O)c3cc(C)c(Cl)cc3S)n2n1	> 100	> 100	> 100	> 100	> 100	> 100	> 100	> 100		> 100
Cc1cn(C2CC(O)C(Cn3nncc3Cn3ccc(=O)[nH]c3=O)O2)c(=O)[nH]c1=O (configuration not stated)	> 100	> 100	> 100	> 100	> 100	> 100	> 100	> 100	> 100	> 100
COc1cc(C2S/C(=C/c3ccccc3)C(=O)N2c2ccccn2)cc(OC)c1OC (configuration not stated)	> 84.8	31.9	> 100	28.8	46.5	> 68	48.8	24.6	> 83.3	33.6
O=c1c2cc([N+](=O)[O-])cnc2sn1-c1ccc(Br)cc1	73.4	> 100	60.7	> 100	> 100	> 100	> 100	22.6	47.1	54.7
CCOC(=O)/C=C1\C[C@H](NC(=O)OCc2ccccc2)C(=O)N1CC(=O)OCC	> 100	> 100	> 100	> 100	> 100	> 100	> 100	> 100	> 100	> 100
NNC(=O)CSc1nnc(CCCCCCCCc2nnc(SCC(=O)NN)o2)o1	> 100	> 100	> 100	> 100	> 100	> 100	> 100	> 100	> 100	> 100
Cn1c2c(c3c(=O)[nH]ncc31)CCCc1ccccc1-2	> 100	> 100	51.8	53.1	> 100	> 100	> 100	38.3	> 100	41.3
N#C/C=C\c1ccc(-c2cc(C(F)(F)F)cc(C(F)(F)F)c2)o1	> 100	> 100	40.7	> 100	> 100	54.8	47.3	> 100	46	50
C=[N+](CNC(=O)CNC(=O)C(Cc1ccccc1)NC(=O)OC(C)(C)C)C(=O)CNC(=O)C(Cc1ccccc1)NC(=O)OC(C)(C)C (configuration not stated)	> 100	> 100	> 100	> 100	> 100	> 100	> 100	> 100	> 100	> 100
NC(=O)N=Nc1c2ccccc2n2[nH]ccc12	> 100	> 100	> 100		> 100	> 100	> 100	> 100	> 100	> 100
COc1cc(C2SC(N)=Nc3c2c(C)nn3C(=O)c2ccc(Cl)cc2)ccc1O (configuration not stated)	> 10	> 10	> 10		> 10	> 10	> 10	> 10	> 10	> 10
CC1OC(n2cnc3c(N)nc(Cl)nc32)C(C)(O)C1O (configuration not stated)	> 25	> 25	> 25	> 25	> 25	> 25	> 25	> 25	> 25	> 25
CCCNC(=O)c1cc(NC(=O)c2cc(NC(=O)CCS(=O)(=O)OC)cn2C)cn1C	> 70.8	72.2	> 100	> 100	4.82	> 100	> 53.1	6.07	> 100	47
CC1(C)N=C(N)N=C(N)N1CCCCc1ccccc1	> 100	> 100	> 100	> 100	> 100	> 81.9	> 100	37.4	> 62.6	> 100
COc1cc2c3c4c1OCc1c5c(cc(c1-4)CC3[N+](C)(C)CC2)OCO5 (configuration not stated)	> 100	> 100	> 100	> 100	54	31.7	> 100	98	> 43	> 100

Reference: PubChem BioAssay (NCI)
